This note sets out measurements from patent publication US8507484B2, “Preventive and/or therapeutic agent for neutrophilic inflammatory diseases” (Kyowa Hakko Kirin Co., Ltd., priority 2004, dated 2013).

Where a name gives a salt, the structure may show the parent alone.

Series [1] has as its target T1, human GPR4 (Homo sapiens, UniProt P46093).
T1 construct: expressed in transfected cells; expression induced by 17β-estradiol
Put plainly: GPR4 antagonism, luciferase reporter assay in human GPR4 assay cells. The format is cell-based. The note with it: 1 μmol/L test compound, 10 nmol/L 17β-estradiol, 6 hours, firefly luciferase reporter; for inhibition at 1 µM: read-out: Inhibition rate (%). How it is done:
Assay cells for human GPR4 were constructed according to the method descried in WO03/087366. By using the assay cells, the constitutive activity of human GPR4 can be detected by activity of a reporter (firefly luciferase).
Plasmid pAGal9-GPR4 for inducible expression of human GPR4 (2 μg: WO03/087366) and reporter plasmid pACREpluc (2 μg; WO03/087366) were co-transferred into 6×10^6 cells of KJMGER8 (WO03/087366) by electroporation. The resultant transformant was suspended in 8 mL of a RPMI1640-ITPSG medium [RPMI medium (Nissui Pharmaceutical Co., Ltd.) containing 6 mmol/L of L-glutamine (Invitrogen Corp.), 100 units/ml of penicillin (Invitrogen Corp.), 100 μg/ml of streptomycin (Invitrogen Corp.), 10 mmol/L of N-2-hydroxyethylpiperazine-N′-2-ethanesulfonic acid (HEPES) (Nacalai Tesque Inc.), 3 μg/ml of insulin (Sigma Co. Ltd.), 5 μg/ml of transferrin (Sigma Co. Ltd.), 5 mmol/L of sodium pyruvate (Wako Pure Chemical Industries, Ltd.), 125 nmol/L of selenious acid (Nacalai Tesque Inc.), and 1 mg/ml of galactose (Nacalai Tesque Inc.)], followed by culture in a CO^2 incubator at 37° C. for 24 hours. After the culture, blasticidin S (Funakoshi Co., Ltd., 2.0 μg/ml), hygromycin B (Wako Pure Chemical Industries, Ltd., 300 μg/ml), and geneticin (Nacalai Tesque Inc., 500 μg/ml) were added to the culture solution, followed by further culture for 14 days to prepare a stable transformant (referred to as “GPR4 assay cells”). The transformant was subcultured in a RPMI1640-ITPSG medium containing blastocidin S (Funakoshi Co., Ltd., 2.0 μg/ml), hygromycin B (manufactured by Wako Pure Chemical Industries, Ltd., 300 μg/ml), and geneticin (Nacalai Tesque Inc., 500 μg/ml).
Similarly, control plasmid pAGal9-nd (2 μg; WO03/087366) and reporter plasmid pACREpluc (2 μg; WO03/087366) were co-transferred in KJMGER8 to prepare a stable transformant (referred to as “control cells”).
The resulting human GPR4 assay cells (expressing GPR4 by stimuli of 17β-estradiol) were seeded onto a white plate at a concentration of 10^5 cells per well. Then, 17β-estradiol (Sigma Co. Ltd.), which was diluted with a medium so that the concentration in the reaction solution was 10 nmol/L, and 1 μmol/L of test compound were added to each well, followed by reaction in a 5% CO2 incubator at 37° C. for 6 hours. Then, a Steady Glo Luciferase Assay System (Promega Co., Ltd.) solution was added to terminate the reaction, and the quantity of light emitted per second was measured by a TOP count (Packard, Meriden, Conn., USA).
The activity (GPR4 antagonism) of the test compound was shown by an inhibition rate calculated on the basis of counts (counts per second) in the presence or absence of 17β-estradiol according to the following equation:
[formula] wherein A, B, and C represent the following values: […]
A: counts when 17β-estradiol and test compound were added
B: counts when neither 17β-estradiol nor test compound was added
C: counts when only 17β-estradiol was added

For series [2], the system named is LPC-induced neutrophil infiltration into airway. Put plainly: Inhibitory activity on LPC-induced neutrophil infiltration into airway (Test Example 2). The format is in vivo. The note with it: 100 mg/kg orally 1 hour before intratracheal LPC; BALF 6 hours after LPC; male BALB/c mice. As to the method:
male BALB/c mice of 7-week old were intratracheally administered with 0.1 ml of a 1 mg/mL LPC solution prepared by dissolving in a 0.1% aqueous bovine serum albumin solution or a 0.1% aqueous bovine serum albumin solution (negative control group). Six hours after, bronchoalveola lavage was conducted, and the neutrophil infiltration in the recovered BALF was measured. In addition, Compound 53 or Compound 81 was suspended in a 0.5% aqueous methyl cellulose solution (solvent), and 100 mg/kg of the resultant suspension was orally administered to the mice 1 hour before LPC administration. In a […] control group, the solvent was administered instead of the test compound suspension. The infiltration of neutrophils was measured by measuring the number of cells in the recovered BALF with an automatic blood counter (Celltac α MEK-6158, Nihon Kohden Corporation, Tokyo) and then counting the number of neutrophils under a microscope using a smear prepared with Cytospin 3 (Shandon, Inc., Pittsburgh, Pa., USA). The number of neutrophils was calculated by multiplying the total number of cells by the percentage of the neutrophils. In this test, six mice per group were used for Compound 53, and six or seven mice per group were used for Compound 81.

The test system is the same in series [3]. Put plainly: Inhibitory activity on LPC-induced neutrophil infiltration into airway (Test Example 3). The format is in vivo. The note with it: 10 mg/kg orally 1 hour before intratracheal LPC; BALF 6 hours after LPC; male BALB/c mice. As to the method: Male BALB/c mice of 7-week old were intratracheally administered with 0.1 mL of a 1 mg/mL LPC solution prepared by dissolving in a 0.1% aqueous bovine serum albumin solution or a 0.1% aqueous bovine serum albumin solution (negative control group). Six hours after, bronchoalveola lavage was conducted, and the neutrophil infiltration in the recovered BALF was measured. In addition, Compound 118 or Compound 160 was suspended in a 0.5% aqueous methyl cellulose solution (solvent), and 10 mg/kg of the resultant suspension was orally administered to the mice 1 hour before LPC administration. In a […] control group, the solvent was administered instead of the test compound suspension. The infiltration of neutrophils was measured by measuring the number of cells in the recovered BALF with an automatic blood counter (Celltac α MEK-6158, Nihon Kohden Corporation, Tokyo) and then counting the number of neutrophils under a microscope using a smear prepared with Cytospin 3 (Shandon, Inc., Pittsburgh, Pa., USA). The number of neutrophils was calculated by multiplying the total number of cells by the percentage of the neutrophils. In this test, five mice per group were used for Compound 118, and six mice per group were used for Compound 160.

T1 sequence (P46093 whole entry): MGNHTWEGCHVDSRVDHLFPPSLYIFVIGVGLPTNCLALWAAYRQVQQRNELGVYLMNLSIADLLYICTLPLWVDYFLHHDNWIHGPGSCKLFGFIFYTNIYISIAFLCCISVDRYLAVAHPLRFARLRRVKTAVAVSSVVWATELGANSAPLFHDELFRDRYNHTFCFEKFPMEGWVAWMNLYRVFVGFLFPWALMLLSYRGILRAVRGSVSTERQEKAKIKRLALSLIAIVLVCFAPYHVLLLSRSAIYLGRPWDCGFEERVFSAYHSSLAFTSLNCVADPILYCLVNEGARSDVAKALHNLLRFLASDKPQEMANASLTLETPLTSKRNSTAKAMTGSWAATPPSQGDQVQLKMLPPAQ

`CCc1nc2c(C)cc(C)nc2n1Cc1cnc(Nc2ccccc2)nc1` (as salt: hydrochloride) yielded a melting point of 146 to 150 °C. The compound `CCc1nc2c(C)cc(C)nc2n1Cc1ccc(C(=O)c2ccccc2)cc1` [Compound 1, 4-(2-Ethyl-5,7-dimethylimidazo[4,5-b]pyridin-3-ylmethyl)benzophenone] registered a melting point of 98 °C. Besides, the inhibition at 1 µM in series [1] stood at 31%. The matching figures for `CCc1nc2c(C)cc(C)nc2n1Cc1cccc(C(=NO)c2cccc(CN3CCCC3)c2)c1` [Compound 24, 1-(3-{[3-(2-Ethyl-5,7-dimethylimidazo[4,5-b]pyridin-3-ylmethyl)phenyl]hydroxyiminomethyl}benzyl)pyrrolidine]: 231 to 236 °C and 34%. As for `CCc1nc2c(C)cc(C)nc2n1Cc1ccc(NC(=O)c2cccc3ccccc23)cc1` [Compound 53], the “suppression of increase in the number of neutrophils in BALF as compared with the positive control group” value (“suppression of increase” for short) in series [2] turned out to be 47%. The “Inhibition rate (%)” value in series [1] was found to be 74%. As to `CCc1nc2c(C)cc(C)nc2n1Cc1ccc(NC(=O)OC(C)(C)C)cc1` [Compound 81], the “suppression of increase” value in series [2] was found to be 42%. Also, the “Inhibition rate (%)” value in series [1] is listed as 77%.

Regarding `CCc1nc2c(C)cc(C)nc2n1Cc1ccc(Nc2ccccc2)cc1` [Compound 97, {4-(2-Ethyl-5,7-dimethylimidazo[4,5-b]pyridin-3-ylmethyl)phenyl}phenylamine], the inhibition at 1 µM in series [1] turned out to be 45%.

For the compound `CCc1nc2c(C)cc(C)nc2n1Cc1cccc(Nc2ccccc2)c1` [Compound 98], the “Inhibition rate (%)” value in series [1] amounted to 37%. On to `CCc1nc2c(C)cc(C)nc2n1Cc1ccc(N[C@H]2CC[C@H](C(=O)NCCN3CCCC3)CC2)cc1` [Compound 118, trans-4-[4-(2-Ethyl-5,7-dimethyl-3H-imidazo[4,5-b]pyridin-3-ylmethyl)phenylamino]cyclohexanecarboxylic acid [2-(pyrrolidin-1-yl)ethyl]amide], for which the “suppression of increase” value in series [3] stood at 60%. Moreover, the inhibition at 1 µM in series [1] was 97%. Regarding `CCc1nc2c(C)cc(C)nc2n1Cc1ccc(NCC2CCNCC2)cc1` [Compound 143, 4-[4-(2-Ethyl-5,7-dimethyl-3H-imidazo[4,5-b]pyridin-3-ylmethyl)phenylamino]methylpiperidine], the inhibition at 1 µM in series [1] came to 97%. As to `Cc1cc(C)c2nc(C)n(Cc3ccc(NCC4CCN(C5CCOCC5)CC4)cc3)c2n1` [Compound 158, 4-[4-(2,5,7-Trimethyl-3H-imidazo[4,5-b]pyridin-3-ylmethyl)phenylamino]methyl-1-(4-tetrahydropyranyl)piperidine], the inhibition at 1 µM in series [1] is 83%. For the compound `Cc1cc(C)c2nc(C)n(Cc3ccc(NCC4CCN(C5CCN(C)CC5)CC4)cc3)c2n1` [Compound 160, 4-[4-(2,5,7-Trimethyl-3H-imidazo[4,5-b]pyridin-3-ylmethyl)phenylamino]methyl-1-(1-methylpiperidin-4-yl)piperidine], in series [3], the “suppression of increase” value is 74%.

The melting point is the temperature, or range, at which the solid turns liquid. Usually inhibition stands for the relative decrease from the control value, in per cent.
